According to publication PMC12736563, “NMR Unveils Activity Mechanism of Linear Spider Venom Peptide Fragments Selected by Neural Networks Against Staphylococci Including MRSA” (Pharmaceutics, 2025):
≈ marks a conversion by molar mass, not a printed value. Entries after “also recorded” stand apart in the source; their conditions may differ. Where two headings read alike, the source gives them in different places. Ends that are not written are not given here.

Columns and labels:
[1] = test system: S. epidermidis ATCC 14990; assay: microbe, parasite or virus in culture; type: cell-based, Staphylococcus epidermidis; conditions: ~1 × 10^5 cells/mL, starting 200 μg/mL
Experimental: (§1) For antimicrobial activity determination, Gram-positive strains (Staphylococcus aureus 209P, ATCC 29213, ATCC 25923, ATCC 43300 [MRSA], S. epidermidis ATCC 14990) were used. Experiments were conducted at bacterial concentrations of (0.5–1) × 10^5 cells/mL. […] Briefly, overnight cultures in Mueller-Hinton broth (MHB, HiMedia, Mumbai, Maharashtra, India) were diluted 1:100 into fresh MHB and incubated at 37 °C for 3 h. Cultures were then adjusted to ~1 × 10^5 cells/mL (by OD600) and used as an inoculate. Peptide stocks (10 mg/mL in water) were prepared in MHB to achieve a starting concentration of 200 μg/mL and subsequently diluted twofold.

S. aureus ATCC 25923 = assay: microbe, parasite or virus in culture; type: cell-based, Staphylococcus aureus; conditions: ~1 × 10^5 cells/mL, starting 200 μg/mL
Experimental: as §1

[2] = test system: S. aureus ATCC 29213 (MSSA); assay: microbe, parasite or virus in culture; type: cell-based, Staphylococcus aureus; conditions: two-fold serial dilution in MHB, ~1 × 10^5 cells/mL, starting 200 μg/mL
Experimental: as §1

[3] = test system: S. aureus ATCC 43300 (MRSA); assay: microbe, parasite or virus in culture; type: cell-based, Staphylococcus aureus
Experimental: as §1

human red blood cells = assay: Hemolytic activity; type: cell-based; conditions: for Hemolysis (%): fresh human capillary blood, two independent experiments; for Hemolytic activity (in words): human red blood cells, up to 100 μM
Experimental: Hemolytic activity was assessed using fresh capillary blood from a human volunteer, as described in [28]. Each peptide’s hemolytic activity was tested in two independent experiments.

E. coli, ATCC 25922 = assay: microbe, parasite or virus in culture; type: cell-based
E. coli, lptD = assay: microbe, parasite or virus in culture; type: cell-based
E. coli, ΔtolC = assay: microbe, parasite or virus in culture; type: cell-based
[4] = pKa of His12 side chain by NMR pH titration; type: physicochemical
Experimental: NMR experiments in aqueous and micellar solutions were performed using samples containing 0.2–1.0 mM of peptide IX in 5% D2O at pH of 4.5. To model a membrane environment, 1-palmitoyl-2-hydroxy-sn-glycero-3-phospho-(1′-rac-glycerol) (LPPG, 16:0 Lyso PG, Avanti, Alabaster, AL, USA) was added stepwise to the aqueous peptide IX sample using a concentrated stock solution until a detergent-to-peptide (D:P) molar ratio of 140:1 was achieved. The NMR spectra were acquired on a Bruker Avance III 800 MHz spectrometer (Karlsruhe, Germany) equipped with a room-temperature triple-resonance (^1H, ^13C, ^15N) probe. Almost complete ^1H, ^13C, and ^15N resonance assignments for peptide IX in aqueous solution and LPPG micelles were obtained via a combination of 2D ^1H-TOCSY (τm = 60 ms), ^1H-NOESY (τm = 150 ms) and natural abundance ^13C-HSQC and ^15N-HSQC spectra measured at 5 °C and 45 °C, respectively, using the CARA 1.9.1.7 software (http://cara.nmr.ch/doku.php/Home (accessed on 12 December 2024)). […] The temperature gradients of amide protons (∆δ^1H^N/∆T) were measured from a series of 2D TOCSY spectra in water and 2D NOESY spectra in LPPG acquired in the temperature range of 15–45 °C. The pH-dependences of the ^1H^N and ^1H^δ2 His12 chemical shifts were measured in the pH range 2–9 from a series of 2D TOCSY spectra in water at 30 °C and 2D NOESY spectra in LPPG micelles at 45 °C. […]

[5] = Solubility in water (statement); type: physicochemical; conditions: aqueous solution; NMR samples 0.2–1.0 mM
S. aureus 209P = assay: MIC, two-fold serial dilution in Mueller-Hinton broth; type: cell-based, Staphylococcus aureus; conditions: conditions identical to those of Figure 2
Experimental: as §1
The mechanism was investigated using the S. aureus 209P strain.

S. aureus 209P cells = assay: Confocal microscopy of plasma membrane permeability to BCECF and PI; type: cell-based, Staphylococcus aureus; conditions: 25 µM peptide, 15 min, Mueller–Hinton broth, CLSM
Experimental: Confocal laser scanning microscopy (CLSM) measurements were performed with an SP2 confocal inverted microscope (Leica Microsystems GmbH, Wetzlar, Germany) using the water-immersion 63×, 1.2 NA HCX PL APO objective. A typical voxel size was 0.15 × 0.15 × 0.9 μm. Excitation wavelengths were 561 nm for propidium iodide (PI) and 488 nm for 2′,7′-Bis-(2-carboxyethyl)-5-(and-6)-carboxyfluorescein (BCECF) (Sigma-Aldrich, MO, USA). Laser power was 3–10 μW the sample. Fluorescence was detected in the 500–550 and 650–700 nm ranges for BCECF and PI, respectively. S. aureus 209P cells were preincubated with acetoxymethyl ester of BCECF (10 μM) in Hank’s balanced salt solution for 30 min at 37 °C, exposed to PI (15 μM) and peptide XIII (25 μM) for 15 min in Mueller–Hinton broth, centrifuged gently in order to concentrate the cells (1600× g, 5 min, 20 °C), and examined by CLSM. Control cells were subjected to the same procedures but without addition of the peptide.

[6] = target: His12 (position 12, KFAGKHL----); assay: NMR
[7] = two-fold serial dilution in MHB, values in Figure 2
[8] = two-fold serial dilution in MHB, Figure 2
[9] = S. aureus ATCC 43300 (MRSA), two-fold serial dilution in MHB, ~1 × 10^5 cells/mL, starting 200 μg/mL, Figure 2

Row | Molecule | MIC [1, 7] | MIC (S. aureus ATCC 25923; [8]) | MIC ([2]; Figure 2) | MIC [3, 9] | further results
1 | ILADLIAKLKVRAA-NH2 [V] | > 200.00 µg/mL | > 200.00 µg/mL | > 200.00 µg/mL | > 200.00 µg/mL | 
2 | CN[C@H](CC(C)C)C(=O)N[C@H]1C(=O)N[C@@H](CC(N)=O)C(=O)N[C@H]2C(=O)N[C@H]3C(=O)N[C@H](C(=O)N[C@H](C(=O)O)c4cc(O)cc(O)c4-c4cc3ccc4O)[C@H](O)c3ccc(c(Cl)c3)Oc3cc2cc(c3O[C@@H]2O[C@H](CO)[C@@H](O)[C@H](O)[C@H]2O[C@H]2C[C@](C)(N)[C@H](O)[C@H](C)O2)Oc2ccc(cc2Cl)[C@H]1O [vancomycin, reference compound] |  |  |  |  | MIC ([1]; Staphylococcus epidermidis, ATCC14990, two-fold serial dilution in MHB, values in Figure 2, read-out: MIC): 0.78 µg/mL (≈ 0.538 µM); MIC (S. aureus ATCC 25923; Staphylococcus aureus, ATCC25923, two-fold serial dilution in MHB, Figure 2, read-out: MIC): 3.12 µg/mL (≈ 2.15 µM); MIC ([2]; Staphylococcus aureus, Figure 2, read-out: MIC): 0.78 µg/mL (≈ 0.538 µM); MIC ([3]; Staphylococcus aureus): 1.56 µg/mL (≈ 1.08 µM)
3 | IWLSLMKFAGKHL-NH2 [IX] | 12.50 µg/mL | 25.00 µg/mL | 25.00 µg/mL | 25.00 µg/mL | Hemolysis (%) (human red blood cells; 25 μM peptide): 0%; Hemolysis (%) (human red blood cells; 50 μM peptide): 14%; Hemolysis (%) (human red blood cells; 100 μM peptide): 100%; MIC (E. coli, ATCC 25922): >200 µg/mL; MIC (E. coli, lptD; E. coli, lptD): 50 µg/mL; MIC (E. coli, ΔtolC; E. coli, ΔtolC): 200 µg/mL; pKa of His12 side chain ([4]; LPPG micelles, D:P 140:1, 2D NOESY at 45 °C): 7.86 ± 0.24; pKa of His12 side chain ([4]; aqueous solution, 5% D2O, 2D TOCSY at 30 °C, pH range of 3–8): 6.02 ± 0.05; solubility in water (in words) [5]: water-soluble
4 | KFAGKHLAKH-NH2 [XII] | > 200.00 µg/mL | > 200.00 µg/mL | > 200.00 µg/mL | > 200.00 µg/mL | 
5 | IWLSLMKFAGKHL [X] | > 200.00 µg/mL | > 200.00 µg/mL | > 200.00 µg/mL | > 200.00 µg/mL | 
6 | GWMKALKEHVEKLNKTGKLK [I] | > 200.00 µg/mL | > 200.00 µg/mL | > 200.00 µg/mL | > 200.00 µg/mL | 
7 | CC1(C)S[C@@H]2[C@H](NC(=O)[C@H](N)c3ccccc3)C(=O)N2[C@H]1C(=O)O [Ampicillin, reference compound] |  |  |  |  | MIC (E. coli, ATCC 25922; Escherichia coli, ATCC25922, read-out: MIC): 3.12 µg/mL (≈ 8.94 µM)
8 | FMKRLISKGKIGKEKLVAF [II] | > 200.00 µg/mL | > 200.00 µg/mL | > 200.00 µg/mL | > 200.00 µg/mL | 
9 | IIWLPVLKFLASHV-NH2 [XIV] | 6.25 µg/mL | 25.00 µg/mL | 12.50 µg/mL | 12.50 µg/mL | Hemolysis (%) (human red blood cells; 25 μM peptide): 0%; Hemolysis (%) (human red blood cells; 50 μM peptide): 60%; Hemolysis (%) (human red blood cells; 100 μM peptide): 100%; MIC (E. coli, ATCC 25922): 200 µg/mL; MIC (E. coli, lptD; E. coli, lptD): 100 µg/mL; MIC (E. coli, ΔtolC; E. coli, ΔtolC): >200 µg/mL
10 | LMKFAGKHLAKH-NH2 [XI] | > 200.00 µg/mL | > 200.00 µg/mL | > 200.00 µg/mL | > 200.00 µg/mL | 
11 | IWWTAVKFFGKQL-NH2 [XV, 13-residue fragment of Lycosin 9o from Lycosa hispanica; negative control in hemolysis] | > 200.00 µg/mL | > 200.00 µg/mL | > 200.00 µg/mL | > 200.00 µg/mL | Hemolysis (%) (human red blood cells; 25 μM peptide): 0%; Hemolysis (%) (human red blood cells; 50 μM peptide): 0%; Hemolysis (%) (human red blood cells; 100 μM peptide): 0%; Hemolytic activity (in words) (human red blood cells): lack of hemolytic activity
12 | CCn1cc(C(=O)O)c(=O)c2ccc(C)nc21 [Nalidixic acid, reference compound] |  |  |  |  | MIC (E. coli, lptD; Escherichia coli): 1.56 µg/mL (≈ 6.72 µM); MIC (E. coli, ΔtolC; Escherichia coli): 1.56 µg/mL (≈ 6.72 µM)
13 | LSLMKFAGKHLAKH-NH2 [VIII] | > 200.00 µg/mL | > 200.00 µg/mL | > 200.00 µg/mL | > 200.00 µg/mL | 
14 | LSLMKFAGKHLAKHQL [VII] | 25.00 µg/mL | > 200.00 µg/mL | > 200.00 µg/mL | > 200.00 µg/mL | MIC (E. coli, ATCC 25922): >200 µg/mL; MIC (E. coli, lptD; E. coli, lptD): 12.5 µg/mL; MIC (E. coli, ΔtolC; E. coli, ΔtolC): >200 µg/mL
15 | SLMKFAGKHLAKHQLSKMG-NH2 [VI] | > 200.00 µg/mL | > 200.00 µg/mL | > 200.00 µg/mL | > 200.00 µg/mL | 
16 | FWFKALKSVAKFIA-NH2 [XIII] | 6.25 µg/mL | 6.25 µg/mL | 3.12 µg/mL | 6.25 µg/mL | MIC (S. aureus 209P): 6.25 µg/mL; Hemolysis (%) (human red blood cells; 25 μM peptide): 0%; Hemolysis (%) (human red blood cells; 50 μM peptide): 0%; Hemolysis (%) (human red blood cells; 100 μM peptide): 0%; Hemolytic activity (in words) (human red blood cells): minimal hemolytic activity; also recorded: lack of hemolysis; MIC (E. coli, ATCC 25922): 50 µg/mL; MIC (E. coli, lptD; E. coli, lptD): 100 µg/mL; MIC (E. coli, ΔtolC; E. coli, ΔtolC): 50 µg/mL; entry of propidium iodide (PI) into cells (S. aureus 209P cells): PI penetrates into cells; leakage of BCECF from cells (S. aureus 209P cells): is released from them
17 | AIWSSAMQFFIKHLKK [III] | > 200.00 µg/mL | > 200.00 µg/mL | > 200.00 µg/mL | > 200.00 µg/mL | 
18 | IWLSLMKFAGKHL [Peptide IX (N-terminal 13-residue fragment of Lycosin 9i) (Lycosa hispanica)] |  |  |  |  | pKa ([6]; 30 °C, free peptide in aqueous solution, disordered (random coil), 1 mM): 6.02±0.05; pKa ([6]; 45 °C, bound to anionic LPPG micelles, structured (helix-like Ile1-Met6, α-helix Lys7-Leu13)): 7.89 ± 0.24
